Measurements from the supplement of paper PMC9663587.

What was measured:
[1] = compound: CCN1CCN(Cc2ccc(Nc3ncc(F)c(-c4cc(F)c5nc(C)n(C(C)C)c5c4)n3)nc2)CC1; experiment: GR value, 72 h; higher = faster growth (1 = untreated, <0 = killing);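 also: breast cancer and non-malignant breast epithelial lines, nine half-log doses, viable cells counted by Hoechst and LIVE/DEAD dye imaging versus time-zero plates and DMSO controls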
[2] = compound: CN(C)C/C=C/C(=O)Nc1ccc(C(=O)Nc2cccc(Nc3ncc(Cl)c(-c4c[nH]c5ccccc45)n3)c2)cc1 [THZ1]; experiment: as above
[3] = compound: CCc1cnn2c(NCc3ccc[n+]([O-])c3)cc(N3CCCC[C@H]3CCO)nc12; experiment: as above
[4] = compound: CC(=O)c1c(C)c2cnc(Nc3ccc(N4CCN(CCOCCOCCOCCNC(=O)COc5cccc6c5C(=O)N(C5CCC(=O)NC5=O)C6=O)CC4)cn3)nc2n(C2CCCC2)c1=O [BSJ-03-123]; experiment: as above
[5] = compound: C=CC(=O)Nc1ccc(C(=O)Nc2[nH]nc3c2CN(C(=O)N[C@H](CN(C)C)c2ccccc2)C3(C)C)cc1 [YKL-5-124]; experiment: as above
[6] = compound: CN(C)C/C=C/C(=O)Nc1ccc(C(=O)N2CCC[C@@H](Nc3ncc(Cl)c(-c4c[nH]c5ccccc45)n3)C2)cc1 [THZ531]; experiment: as above
[7] = compound: T1, CN1CC[C@H](c2c(O)cc(O)c3c(=O)cc(-c4ccccc4Cl)oc23)[C@H](O)C1 [Flavopiridol]; experiment: as above
[8] = compound: CCOc1cc2ncc(C#N)c(Nc3ccc(OCc4ccccn4)c(Cl)c3)c2cc1NC(=O)/C=C/CN(C)C [Neratinib/HKI272]; experiment: as above
[9] = compound: CC(=O)c1c(C)c2cnc(Nc3ccc(N4CCNCC4)cn3)nc2n(C2CCCC2)c1=O; experiment: as above
[10] = compound: CN(C)C(=O)c1cc2cnc(Nc3ccc(N4CCNCC4)cn3)nc2n1C1CCCC1 [LEE011/Ribociclib]; experiment: as above
[11] = compound: Cc1nc(-c2cn3c(n2)-c2ccc(-c4cnn(C(C)(C)C(N)=O)c4)cc2OCC3)n(C(C)C)n1 [Taselisib/GDC0032]
[12] = compound: CN(C)CC[C@H](CSc1ccccc1)Nc1ccc(S(=O)(=O)NC(=O)c2ccc(N3CCN(Cc4ccccc4-c4ccc(Cl)cc4)CC3)cc2)cc1[N+](=O)[O-] [ABT-737]
[13] = compound: CN1CCN(CCOc2cc(OC3CCOCC3)c3c(Nc4c(Cl)ccc5c4OCO5)ncnc3c2)CC1 [Saracatinib/AZD0530]
[14] = compound: T1, Flavopiridol
[15] = compound: CO[C@@H](C)Cn1c(=O)n(C)c2cnc3ccc(-c4cncc(C(C)(C)O)c4)cc3c21
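For GR50, 72 h in this document: breast cancer and non-malignant breast epithelial cell lines, Deep Dye Drop or Dye Drop imaging, nine half-log doses, GR normalized to time-zero plates and DMSO-only controls.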

CAMA1
GR value ([1]; 0.001 µM): 0.866 GR
GR value ([1]; 0.003162 µM): 0.777 GR
GR value ([1]; 0.01 µM): 0.44 GR
GR value ([1]; 0.03162 µM): 0.272 GR
GR value ([1]; 0.1 µM): 0.257 GR
GR value ([1]; 0.3162 µM): 0.278 GR
GR value ([1]; 1 µM): 0.285 GR
GR value ([1]; 3.162 µM): 0.286 GR
GR value ([1]; 10 µM): 0.223 GR
GR value ([2]; 0.0001 µM): 0.892 GR
GR value ([2]; 0.0003162 µM): 0.979 GR
GR value ([2]; 0.001 µM): 0.758 GR
GR value ([2]; 0.003162 µM): 0.755 GR
GR value ([2]; 0.01 µM): 0.615 GR
GR value ([2]; 0.03162 µM): 0.549 GR
GR value ([2]; 0.1 µM): 0.208 GR
GR value ([2]; 0.3162 µM): -0.0416 GR
GR value ([2]; 1 µM): -0.467 GR
GR value ([3]; 0.0001 µM): 0.942 GR
GR value ([3]; 0.0003162 µM): 1.05 GR
GR value ([3]; 0.001 µM): 1.01 GR
GR value ([3]; 0.003162 µM): 1 GR
GR value ([3]; 0.01 µM): 0.725 GR
GR value ([3]; 0.03162 µM): -0.0614 GR
GR value ([3]; 0.1 µM): -0.386 GR
GR value ([3]; 0.3162 µM): -0.417 GR
GR value ([3]; 1 µM): -0.494 GR
GR value ([4]; 0.001 µM): 0.778 GR
GR value ([4]; 0.003162 µM): 0.65 GR
GR value ([4]; 0.01 µM): 0.463 GR
GR value ([4]; 0.03162 µM): 0.391 GR
GR value ([4]; 0.1 µM): 0.264 GR
GR value ([4]; 0.3162 µM): 0.238 GR
GR value ([4]; 1 µM): 0.219 GR
GR value ([4]; 3.162 µM): 0.219 GR
GR value ([4]; 10 µM): 0.0155 GR
GR value ([5]; 0.001 µM): 0.224 GR
GR value ([5]; 0.003162 µM): 0.229 GR
GR value ([5]; 0.01 µM): 0.0682 GR
GR value ([5]; 0.03162 µM): 0.0899 GR
GR value ([5]; 0.1 µM): 0.0659 GR
GR value ([5]; 0.3162 µM): -0.0547 GR
GR value ([5]; 1 µM): 0.0323 GR
GR value ([5]; 3.162 µM): 0.0041 GR
GR value ([5]; 10 µM): -0.591 GR
GR value ([6]; 0.0001 µM): 1.2 GR
GR value ([6]; 0.0003162 µM): 0.94 GR
GR value ([6]; 0.001 µM): 0.893 GR
GR value ([6]; 0.003162 µM): 1.16 GR
GR value ([6]; 0.01 µM): 1.26 GR
GR value ([6]; 0.03162 µM): 0.867 GR
GR value ([6]; 0.1 µM): 0.777 GR
GR value ([6]; 0.3162 µM): -0.0843 GR
GR value ([6]; 1 µM): -0.403 GR
GR value ([7]; 0.0001 µM): 1.25 GR
GR value ([7]; 0.0003162 µM): 1.12 GR
GR value ([7]; 0.001 µM): 0.73 GR
GR value ([7]; 0.003162 µM): 1.05 GR
GR value ([7]; 0.01 µM): 0.907 GR
GR value ([7]; 0.03162 µM): 0.862 GR
GR value ([7]; 0.1 µM): 0.807 GR
GR value ([7]; 0.3162 µM): 0.194 GR
GR value ([7]; 1 µM): -0.111 GR
GR value ([8]; 0.0003162 µM): 1.08 GR
GR value ([8]; 0.001 µM): 1.01 GR
GR value ([8]; 0.003162 µM): 1.01 GR
GR value ([8]; 0.01 µM): 0.989 GR
GR value ([8]; 0.03162 µM): 1 GR
GR value ([8]; 0.1 µM): 0.993 GR
GR value ([8]; 0.3162 µM): 0.949 GR
GR value ([8]; 1 µM): 0.837 GR
GR value ([8]; 3.162 µM): 0.455 GR
GR value ([9]; 0.0003162 µM): 0.969 GR
GR value ([9]; 0.001 µM): 0.973 GR
GR value ([9]; 0.003162 µM): 0.94 GR
GR value ([9]; 0.01 µM): 0.887 GR
GR value ([9]; 0.03162 µM): 0.678 GR
GR value ([9]; 0.1 µM): 0.442 GR
GR value ([9]; 0.3162 µM): 0.303 GR
GR value ([9]; 1 µM): 0.3 GR
GR value ([9]; 3.162 µM): 0.288 GR
GR value ([10]; 0.001 µM): 0.721 GR
GR value ([10]; 0.003162 µM): 0.549 GR
GR value ([10]; 0.01 µM): 0.365 GR
GR value ([10]; 0.03162 µM): 0.492 GR
GR value ([10]; 0.1 µM): 0.285 GR
GR value ([10]; 0.3162 µM): 0.207 GR
GR value ([10]; 1 µM): 0.21 GR
GR value ([10]; 3.162 µM): 0.141 GR
GR value ([10]; 10 µM): 0.159 GR
GR50, 72 h [11]: 1.77 µM
GR50, 72 h [12]: > 10 µM
GR50, 72 h [13]: > 10 µM
GR50, 72 h [14]: 0.178 µM
GR50, 72 h [15]: < 0.001 µM
